Legend:
[1] = biological target: benzodiazepine site of the GABA-A receptor; experiment: Benzodiazepine Receptor Binding Assay (inhibition of 3H-flunitrazepam binding); settings: Table 1; ca. 3 nM 3H-flunitrazepam, 25° C., 10-20 min; >10,000 = not active
[2] = Suppression of anxiety (punished licking, conflict test) in the adult male rat; format: in vivo, male rats; settings: Table 1, ip, minimum effective dose, >10 = active dose not determined, read-out: Conflict (ip) MED
Experimental: The anxiolytic activity of selected compounds of the invention was assessed by determining their ability to release (disinhibit) behavior that had been suppressed by punishment (Vogel, J. R. et al. Psychopharmacology 1971, 21, 1). Male rats were deprived of water for 48 hours and were deprived of food for 24 hours prior to testing. After the first 24 hours of water deprivation, they were placed in the conflict chamber for a training period; wherein, they were allowed 200 unpunished licks from a bottle containing tap water. The experiment was run the next day. At the expected time of peak activity, the animals were placed in the chamber and allowed access to tap water. […] Their first lick initiates a 3-min test session. Subsequently,every 20th lick was punished by a 0.2-s shock delivered via the stainless-steel drinking-tube. Vehicle-treated control animals generally were willing to accept a median number of 3 to 8 shocks per test session. […] The Wilcoxon rank-sum test (Mann-WhitneyU-test) was used to test for an increase (p<0.05, 1-tailed) in the median number of shocks in drug-treated groups, compared to a concurrently run vehicle-treated group. The biological assay is considered to be valid if the effects of a known anxiolytic (positive control) are detected, within the same experiment. A compound was considered active if there is a significant difference in the median number of shocks tolerated between the drug-treated group and the control group. The MED was defined as the minimum dose of the drug-treatment as analyzed using the Wilcoxon rank-sum test (SAS; Statistical Analysis System, version 5.16). If the MED value is greater than 10, an active dose of the compound being tested had not been determined.

[3] = Suppression of metrazol-induced convulsions; format: in vivo, male CD1 mice; settings: Mus musculus, 0.5 h; Table 1; ip; mice; clonic convulsions after sc CD90 metrazol; >30 = active dose not determined; read-out: Metrazol (ip) ED50
Experimental: Selected compounds of the invention were tested for their ability to reduce metrazol-induced convulsions in mice (Swinyard, E. A. J. Am. Pharm Assoc. 1949, 38, 201). Male CD1 mice, were fasted at least 16 hours, were divided into equal groups and test compounds or vehicle were administered parenterally. Water was not withheld except during the period of observations. At the time of suspected peak activity, anti-pentylenetetrazol (anti-metrazol) activity was evaluated by the subcutaneous administration of the CD90 dose of metrazol (the dose of metrazol was determined from the dose-response curve producing clonic convulsions in 90% of animals that received the corresponding vehicle for this experiment). Metrazol was dissolved in 0.9% sodium chloride solution, and its dose volume was 10 ml/kg. Animals were housed individually for observation of clonic convulsions, tonic convulsions and death for a period of 30 min. Test compounds that blocked the clonic seizure component of the convulsion in at least 50% of the animals were considered active. The biological assay was considered to be valid if the effects of a known anticonvulsant (positive control) were detected, within the same experiment. Activity was reported as percent reduction of clonic convulsions from the vehicle group. The ED50 values of active compounds were calculated by the method of probits (Finney, D. J. 1971. Probit Analysis. London: Cambridge University Press) and are listed in Tables 1 to 5.

SMILES | IC50 [1] [nM] | minimal effective dose [2] [mg/kg] | ED50 [3] [mg/kg]
O=C1CCN2C(=C1C(=O)Nc1nccnn1)Nc1ccccc12 [compound 49] | 54 | > 10 | 10
O=C1CCN2C(=C1C(=O)Nc1ccc3[nH]ncc3c1)Nc1ccccc12 [compound 50] | 96 | 10 | > 10
O=C1CCN2C(=C1C(=O)Nc1cccc3ccoc13)Nc1ccccc12 [compound 51] | 120 | 10 | > 10
O=C1CCN2C(=C1C(=O)Nc1ccnc(Cl)c1)Nc1ccccc12 [compound 52] | 1400 | > 10 | > 10
O=C1CCN2C(=C1C(=O)Nc1ncncn1)Nc1ccccc12 [compound 53] | 110 | > 10 | > 10
N#Cc1ccc(NC(=O)C2=C3Nc4ccccc4N3CCC2=O)cc1 [compound 54] | 13000 | < 10 | > 10
O=C1CCN2C(=C1C(=O)Nc1c(F)c(F)nc(F)c1F)Nc1ccccc12 [compound 55] | 350 | > 10 | > 10
COc1ccc2c(c1)NC1=C(C(=O)Nc3ccncc3)C(=O)CCN12 [compound 57] | 500 | > 10 | > 10
O=C1CCN2C(=C1C(=O)NCc1ccncc1)Nc1ccccc12 [compound 59] | 65 | > 10 | > 10
O=C1CCN2C(=C1C(=O)NN1CCOCC1)Nc1ccccc12 [compound 60] | 3000 | < 10 | > 10
NS(=O)(=O)c1ccc(NC(=O)C2=C3Nc4ccccc4N3CCC2=O)cc1 [compound 61] | 10000 | 10 | > 10
O=C1CCN2C(=C1C(=O)NCc1cccnc1)Nc1ccccc12 [compound 62] | 155 | > 10 | > 10
O=C1CCN2C(=C1C(=O)Nc1cnccn1)Nc1ccccc12 [compound 63] | 360 | > 10 | > 10
Cc1nnc(NC(=O)C2=C3Nc4ccccc4N3CCC2=O)s1 [compound 64] | 1100 | > 10 | > 10
O=C1CCN2C(=C1C(=O)Nc1cccc3cnccc13)Nc1ccccc12 [compound 65] | 770 | > 10 | 10
CSc1cnccc1NC(=O)C1=C2Nc3ccccc3N2CCC1=O [compound 66] | 3300 | 10 | 10
O=C1CCN2C(=C1C(=O)Nc1c(Cl)c(F)nc(F)c1Cl)Nc1ccccc12 [compound 67] | 10000 | 10 | 10
Cc1cc(NC(=O)C2=C3Nc4ccccc4N3CCC2=O)on1 [compound 68] | 54 | > 10 | > 10
O=C1CCN2C(=C1C(=O)Nc1nncs1)Nc1ccccc12 [compound 69] | 300 | > 10 | > 10
O=C1CCN2C(=C1C(=O)Nc1cccnc1Cl)Nc1ccccc12 [compound 70] | 68 | 10 | 3
CCN(CC)c1ccc(NC(=O)C2=C3Nc4ccccc4N3CCC2=O)cc1 [compound 71] | 1800 | > 10 | 3
O=C1CCN2C(=C1C(=O)Nc1ccc3ncsc3c1)Nc1ccccc12 [compound 72] | 10000 | < 10 | > 10

SMILES | IC50 [1] [nM] | minimal effective dose [2] [mg/kg] | ED50 [3] [mg/kg]
O=C1CCN2C(=C1C(=O)Nc1ccc3[nH]nnc3c1)Nc1ccccc12 [compound 73] | 160 | > 10 | > 10
O=C1CCN2C(=C1C(=O)Nc1nnc(C(F)(F)F)s1)Nc1ccccc12 [compound 74] | 10000 | > 10 | 10
O=C1CCN2C(=C1C(=O)Nc1ccncc1Cl)Nc1ccccc12 [compound 75] | 220 | > 10 | 1 to 10
Cc1cc(NC(=O)C2=C3Nc4ccccc4N3CCC2=O)c2ccccc2n1 [compound 76] | 10000 | > 10 | 10
Cc1cnccc1NC(=O)C1=C2Nc3ccccc3N2CCC1=O [compound 77] | 7100 | > 10 | > 10
O=C1CCN2C(=C1C(=O)Nc1ncc(C(F)(F)F)cc1C(F)(F)F)Nc1ccccc12 [compound 78] | > 10000 | 10 | > 10
CSc1cc(N(C)C)ccc1NC(=O)C1=C2Nc3ccccc3N2CCC1=O [compound 79] | 660 | > 10 | > 10
CN(C)c1ccc(NC(=O)C2=C3Nc4cc(Cl)ccc4N3CCC2=O)cc1 [compound 80] | 220 | > 10 | 10
O=C1CCN2C(=C1C(=O)Nc1ccccc1)Nc1cc(Cl)ccc12 [compound 81] | 66 | 10 | > 10
O=C1CCN2C(=C1C(=O)Nc1ccncc1)Nc1cc(Cl)ccc12 [compound 82] | 380 | > 10 | 3
O=C1CCN2C(=C1C(=O)NC1CCC1)Nc1ccccc12 [compound 83] | 30 | 10 | > 30
O=C1CCN2C(=C1C(=O)Nc1ccccc1)Nc1ccc(Cl)cc12 [compound 84] | 170 | > 10 | > 10
Cc1cc(N(C)C)ccc1NC(=O)C1=C2Nc3ccccc3N2CCC1=O [compound 85] | 4000 | > 10 | 10
CN(C)c1ccccc1NC(=O)C1=C2Nc3ccccc3N2CCC1=O [compound 87] | 10000 | 10 | 10
Cc1cccc2c1NC1=C(C(=O)Nc3ccncc3)C(=O)CCN12 [compound 88] | 390 | > 10 | 10
Cc1cccc2c1NC1=C(C(=O)Nc3ccccc3)C(=O)CCN12 [compound 89] | 10 | > 10 | 1
O=C1CCN2C(=C1C(=O)Nc1c(F)c(F)c(F)c(F)c1F)Nc1ccccc12 [compound 91] | 270 | 10 | 1 to 10
O=C1CCN2C(=C1C(=O)Nc1ccc(F)cc1F)Nc1ccccc12 [compound 92] | 10 | > 10 | 1
O=C1CCN2C(=C1C(=O)Nc1c(F)cc(F)cc1F)Nc1ccccc12 [compound 93] | 15 | 3 | 1
Cc1cccc2c1NC1=C(C(=O)Nc3ccccc3F)C(=O)CCN12 [compound 94] | 96 | < 10 | 1
O=C1CCN2C(=C1C(=O)Nc1ccc(F)c(F)c1F)Nc1ccccc12 [compound 96] | 1500 | > 10 | > 10
O=C1CCN2C(=C1C(=O)Nc1cc(F)ccc1F)Nc1ccccc12 [compound 98] | 12 | > 30 | > 30
